Results reported in patent publication US8299079B2, “Preparations and methods for ameliorating or reducing presbyopia” (priority 2009, dated 2012).
“And” between values parts separate entries of the source, which are not always exact repeats. Equal entries are not always repeated.

Experiments:
[1] = test system: pupil diameter of patients suffering from presbyopia; experiment: Preliminary evaluation: pupil diameter after pilocarpine alone or with brimonidine; assay type: in vivo, human
Protocol: (§1) The effect of pilocarpine alone or in combination with brimonidine on near visual acuity (VA) for patients suffering from presbyopia was evaluated. Initially, 10 patients were selected for preliminary evaluation. Each patient was administered with one drop of a formulation containing 0.25%, 0.5%, or 1.0% pilocarpine with or without one drop of a formulation containing 0.2% brimonidine. Thus, the following six dosages were initially tested: • 1. 0.25% pilocarpine, • 2. 0.5% pilocarpine, • 3. 1.0% pilocarpine, • 4. 0.25% pilocarpine and 0.2% brimonidine, • 5. 0.5% pilocarpine and 0.2% brimonidine, and • 6. 1.0% pilocarpine and 0.2% brimonidine.

[2] = test system: near visual acuity (VA) for patients suffering from presbyopia; experiment: Preliminary evaluation: near visual acuity after pilocarpine alone or with brimonidine; assay type: in vivo, human
Protocol: as §1

SMILES	effect on the pupil (potentiation of pilocarpine) ([1]; brimonidine combined with pilocarpine)	Pupil ([1]; Pilo alone 0.25%, 1 hr)	Pupil ([1]; Pilo alone 0.25%, 2 hrs)	Pupil ([1]; Pilo alone 0.25%, 4 hrs)	Pupil ([1]; Pilo alone 0.5%, 1 hr)	Pupil ([1]; Pilo alone 0.5%, 2 hrs)	Pupil ([1]; Pilo alone 0.5%, 4 hrs)	Pupil ([1]; Pilo alone 1%, 1 hr)	Pupil ([1]; Pilo alone 1%, 2 hrs)	Pupil ([1]; Pilo alone 1%, 4 hrs)	duration of effect on visual acuity (wear out) ([2]; 1, 2, 4 hrs after administration)	nVA ([2]; Pilo alone 0.25%, 2 hrs)	nVA ([2]; Pilo alone 0.5%, 1 hr)	nVA ([2]; Pilo alone 0.5%, 2 hrs)	nVA ([2]; Pilo alone 0.5%, 4 hrs)
Brc1c(NC2=NCCN2)ccc2nccnc12 [brimonidine]	potentiates the effect of pilocarpine on the pupil														
CC[C@@H]1C(=O)OC[C@@H]1Cc1cncn1C [Pilo Alone, pilocarpine]		3 and 3.5 and 2.5 and 3.3	4 and 3.5 and 3	4	2.5 and 3.8 and 3	3 and 4 and 2.5 and 3.3	3.3 and 4 and 3 and 4.2	2.5 and 1.5 and 3	3 and 1.5 and 2.5	4 and 2.5 and 3	appears to wear out fairly quickly	3 J and 5 J and 6 J	3 J and 6 J and 5 J	5 J and 3 J	5 J and 3 J
